Data on 1 substance can be found in US4487718A, “Peptides” (Kowa Company, Ltd., priority 1983, dated 1984).

Assay [1] relates to fibrin clot. Kind of assay: Fibrinolysis-accelerating effect: release of 125I from fibrin clots of platelet-rich plasma. Set-up: species or system human. The note with it: peptide 0-500 μM, FIG. 3. As for the experimental part:
Healthy human blood to which sodium citrate had been added, was subjected to centrifugal separation to prepare platelet-rich plasma. A trace amount of ^125 I-labeled fibrinogen was added to and mixed with the platelet-rich plasma. 250 mM solutions of calcium chloride which contained the peptide (Ia) at different levels (0-5 mM) were poured, each in a volume of 20 μl, into glass test tubes. Each test tube was added with 180 μl of the above plasma and then allowed to stand at 37° C. A fibrin clot was formed in several minutes. Clot retraction started about 15 minutes later and was completed in about 30 minutes.
Thereafter, 800 μl of platelet-poor plasma which contained the peptide (Ia) at different levels (0-500 μM) and 1 u of Hirudin was added to each of the test tubes. The test tube was then incubated at 37° C. The contents were sampled periodically to measure ^125 I released into the supernatant.

The target in assay [2] is T1, crosslinking of α2 -PI to fibrin (Homo sapiens, UniProt P00488).
T1 sequence (P00488 39-732 limits assumed): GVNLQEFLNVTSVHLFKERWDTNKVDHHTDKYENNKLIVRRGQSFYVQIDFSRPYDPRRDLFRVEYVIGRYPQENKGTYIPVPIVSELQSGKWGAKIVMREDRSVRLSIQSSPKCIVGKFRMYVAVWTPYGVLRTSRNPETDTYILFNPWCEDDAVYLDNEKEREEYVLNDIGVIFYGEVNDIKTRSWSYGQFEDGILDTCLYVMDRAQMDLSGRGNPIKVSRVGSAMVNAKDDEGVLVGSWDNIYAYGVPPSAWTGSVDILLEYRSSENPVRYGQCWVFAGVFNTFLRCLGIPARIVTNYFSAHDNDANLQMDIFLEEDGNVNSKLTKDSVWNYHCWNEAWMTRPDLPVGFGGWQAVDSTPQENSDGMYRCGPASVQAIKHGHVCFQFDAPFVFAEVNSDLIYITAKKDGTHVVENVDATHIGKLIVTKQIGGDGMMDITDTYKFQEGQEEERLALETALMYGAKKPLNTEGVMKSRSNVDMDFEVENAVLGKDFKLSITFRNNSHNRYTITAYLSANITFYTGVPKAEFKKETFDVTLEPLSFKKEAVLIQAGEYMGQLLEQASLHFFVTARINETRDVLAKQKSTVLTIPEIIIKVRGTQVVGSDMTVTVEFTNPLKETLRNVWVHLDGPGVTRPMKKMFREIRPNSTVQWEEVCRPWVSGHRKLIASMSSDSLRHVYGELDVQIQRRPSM
Description: Inhibitory effect against the crosslinking of α2 -PI to fibrin. Format: biochemical. The note with it: peptide 0-50 mM solution, α2 -PI 10 μM solution; FIG. 2. As for the experimental part:
Twenty microliters of a mixed solution of thrombin (3.3 u/ml) and calcium chloride (50 mM) was added to a mixed solution consisting of 20 μl of fibrinogen (30 mg/ml, 88 μM, containing 10 u/ml of the blood coagulation factor XIII), 20 μl of α2 -PI (0.67 mg/ml, 10 μM), 20 μl of a ^125 I-labeled peptide (0-50 mM) and 120 μl of a Tris buffer. The amount of the peptide bonded to the resulting fibrin clot was then determined in the same manner as in Experiment 1.
On the other hand, the amount of α2 -PI coupled with a fibrin clot was also determined using ^125 I-labeled α2 -PI and an unlabeled peptide.

For assay [3], the target named is T2, activated blood coagulation factor XIII (Homo sapiens, UniProt P00488).
T2 sequence (P00488 39-732 limits assumed): T1 sequence (P00488 39-732 limits assumed)
Description: Crosslinking capacity of the peptide (Ia) to fibrin (125I-labeled peptide, fibrin clot radioactivity). Type of assay: biochemical. As for the experimental part:
To a mixed solution of 20 μl of the peptide (Ia) labeled with a radioactive isotope ^125 I, 20 μl of fibrinogen (30 mg/ml, 88 μM, containing 2 or 10 μ/ml of the blood coagulation factor XIII) and 140 μl of a Tris buffer, was added 20 μl of a mixed solution of thrombin (3.3 u/ml) and calcium chloride (50 mM). The resulting mixture was then incubated at 37° C.
The clotting sample was frozen instantaneously at each time with dry ice/acetone to terminate the reaction and then lyophilized. The resulting fibrin film was washed three times, each for 5 minutes, with 200 μl of 50 mM EDTA containing 1% of BSA (brovine serum albmin). The thus washed fibrin film was measured in its radioactivity to determine the amount of the peptide coupled with the fibrin [see "Biochim, Biophys, Acta", 661, 280-286, (1981)].

Assay [4] has as its system fibrin clot. Kind of assay: Synergistic effects in combination with tissue plasminogen activator (TPA), added before or after clot formation. Set-up: species or system human. The conditions noted are these: with melanoma-derived TPA, compared with no activator, FIGS. 4 and 5. On the procedure:
Healthy human blood to which sodium citrate had been added, was subjected to centrifugal separation to prepare platelet-rich plasma. A trace amount of ^125 I-labeled fibrinogen was added to and mixed with the platelet-rich plasma. 250 mM solutions of calcium chloride which contained the peptide (Ia) at different levels (0-5 mM) and 1 u/ml of a melanoma-derived tissue plasminogen activator (TPA), were poured 20 μl by 20 μl into glass test tubes, each of which was then added with 180 μl of the above plasma. A fibrin clot was formed in several minutes. Clot retraction started about 15 minutes later and was completed in about 30 minutes.
Thereafter, each test tube was added with 800 μl of platelet-poor plasma which contained the peptide (Ia) at different levels (0-500 μM) and 1 u of Hirudin. The test tube was then incubated at 37° C. The contents were sampled periodically to measure ^125 I released into the supernatant.
Healthy human blood to which sodium citrate had been added, was subjected to centrifugal separation to prepare platelet-rich plasma. A trace amount of ^125 I-labeled fibrinogen was added to and mixed with the platelet-rich plasma. 250 mM solutions of calcium chloride were poured 20 μl by 20 μl into glass test tubes, each of which was then added with 180 μl of the above plasma. A fibrin clot was formed in several minutes. […]

Regarding “L-Asn-L-Gln-L-Glu-L-Gln-L-Val-L-Ser-L-Pro-L-Leu-L-Thr-L-Gly-L-Leu-L-Lys-NH [peptide (Ia)]”, the “fibrinolysis-accelerating effect (dissolution of fibrin clot)” value in the assay with fibrin clot [1] (human platelet-rich plasma clot, 37° C., compared with absence of peptide) is “has a fibrinolysis-accelerating effect”. Besides, the “dependence of the fibrinolysis-accelerating effect on the amount added” value with fibrin clot [1] is given as “proportional to the amounts of the peptide (Ia) added”. For the same substance, the “inhibition of the crosslinking of α2 -PI to the fibrin” value in assay [2] was “inhibits competitively”. For the same substance, the “amount of the peptide coupled with the fibrin at equilibrium” value in assay [3] (125I-labeled peptide, fibrinogen containing factor XIII, thrombin, calcium chloride, 37° C., FIG. 1) is recorded as “about 40%”. The “crosslinking velocity to fibrin” value in assay [3] (compared with α2 -PI, FIG. 1) is “substantially the same as that of α2 -PI”. Besides, in assay [3] (conclusion from Experiment 1), the “glutamine substrate for the activated blood coagulation factor XIII” value was “good glutamine substrate”. In addition, the “fibrinolysis-accelerating effect in combination with a plasminogen activator” value with fibrin clot [4] is “synergistically enhanced fibrinolysis-accelerating effect”.
